Consider 26 compounds from patent US9795607B2, “Substituted pyrrolopyrimidine compounds, compositions thereof, and methods of treatment therewith” (Signal Pharmaceutical, LLC, priority 2013, dated 2017).

The test system of this assay is Triple negative breast cancer cell line CAL51. The assay can be described thus: Cell Titer Glo proliferation assay, CAL51. The format is cell-based. The following applies: Homo sapiens, CAL-51; CAL51 cell proliferation, Cell Titer Glo; read-out: Act. Level. How it is done:
Cell Titer Glo Proliferation Assay.
Triple negative breast cancer cell line CAL51 was purchased from DSMZ. […] Allcell lines were maintained in growth media consisting of 90% high glucose Dulbecco's Modified Eagle Medium or RPMI1640 (Invitrogen), 10% fetal bovine serum (Hyclone), and 2 mM L-glutamine (Invitrogen). […] After overnight culture, compound stock (30 mM) was diluted serially in DMSO, further diluted in growth media, and was added to each well as a 10× concentrated solution in a volume of 11 μL, mixed, and allowed to incubate with cells. The compound vehicle (DMSO) was maintained at a final concentration of 0.2% in all wells. After 72 h, 100 μL of Cell Titer Glo solution (Promega) was added to each well of the 96-well plate. The plate was placed on a shaker for 2 minutes. After 10 minutes incubation, the luminescence signal was detected with Envision microplate reader (Perkin Elmer).
A general note: ATP-based viability assays read luminescence as a measure of living cells.

Structures are written as SMILES.

`COc1cc(C(=O)NCCO)ccc1Nc1nc(OC2CCOCC2)c2c(-c3cnn(C)c3)c[nH]c2n1` [Example 327, N-(2-hydroxyethyl)-3-methoxy-4-(5-(1-methyl-1H-pyrazol-4-yl)-4-(tetrahydro-2H-pyran-4-yloxy)-7H-pyrrolo[2,3-d]pyrimidin-2-ylamino)benzamide]: the IC50 is 100 to 400 nM.

Turning to `CNC(=O)c1ccc(Nc2nc(O[C@H]3CCOC3)c3c(-c4cnn(C)c4)c[nH]c3n2)c(OC)c1` [Example 328, (S)-3-methoxy-N-methyl-4-(5-(1-methyl-1H-pyrazol-4-yl)-4-(tetrahydrofuran-3-yloxy)-7H-pyrrolo[2,3-d]pyrimidin-2-ylamino)benzamide], the IC50 is less than 100 nM.

Regarding `CNC(=O)c1ccc(Nc2nc(OC3CCCC3)c3c(-c4cc(F)c5nc(C)oc5c4)c[nH]c3n2)c(OC)c1` [Example 330, 4-(4-(cyclopentyloxy)-5-(4-fluoro-2-methylbenzo[d]oxazol-6-yl)-7H-pyrrolo[2,3-d]pyrimidin-2-ylamino)-3-methoxy-N-methylbenzamide], the IC50 fell in the range of 100 to 400 nM.

As to `CNC(=O)c1ccc(-c2c[nH]c3nc(Nc4ccc(C(=O)NCCO)cc4OC)nc(OC4CCC4)c23)cc1` [Example 331, 4-(4-cyclobutoxy-5-(4-(methylcarbamoyl)phenyl)-7H-pyrrolo[2,3-d]pyrimidin-2-ylamino)-N-(2-hydroxyethyl)-3-methoxybenzamide], the IC50 fell in the range of 100 to 400 nM.

Regarding `CNC(=O)c1ccc(-c2c[nH]c3nc(Nc4ccc(C(=O)NC5COC5)cc4C)nc(OC4CCC4)c23)cc1` [Example 332, 4-(4-cyclobutoxy-5-(4-(methylcarbamoyl)phenyl)-7H-pyrrolo[2,3-d]pyrimidin-2-ylamino)-3-methyl-N-(oxetan-3-yl)benzamide], the IC50 is less than 100 nM.

Turning to `CNC(=O)c1ccc(-c2c[nH]c3nc(Nc4ccc(C(=O)NC5COC5)cc4Cl)nc(OC4CCC4)c23)cc1` [Example 333, 3-chloro-4-(4-cyclobutoxy-5-(4-(methylcarbamoyl)phenyl)-7H-pyrrolo[2,3-d]pyrimidin-2-ylamino)-N-(oxetan-3-yl)benzamide], the IC50 is less than 100 nM.

In the case of `COc1cc(C(=O)N2CC2C)ccc1Nc1nc(OC2CCCC2)c2c(-c3ccc4nc(C)oc4c3)c[nH]c2n1` [Example 335, (R)-(4-(4-(cyclopentyloxy)-5-(2-methylbenzo[d]oxazol-6-yl)-7H-pyrrolo[2,3-d]pyrimidin-2-ylamino)-3-methoxyphenyl)(2-methylaziridin-1-yl)methanone], the IC50 lay in the range of 400 to 1000 nM.

Take `CNC(=O)c1ccc(-c2c[nH]c3nc(Nc4ccc(C(=O)N5CC5)cc4OC)nc(O[C@H]4CC[C@@](C)(O)CC4)c23)cc1` [Example 336, 4-(2-(4-(aziridine-1-carbonyl)-2-methoxyphenylamino)-4-((1s,4s)-4-hydroxy-4-methylcyclohexyloxy)-7H-pyrrolo[2,3-d]pyrimidin-5-yl)-N-methylbenzamide]: the IC50 was less than 100 nM.

On to `CNC(=O)c1ccc(-c2c[nH]c3nc(Nc4ccc(C(=O)NC5COC5)cc4OC)nc(OC4CCC(C)(O)CC4)c23)cc1` (centres unmarked) [Example 337, 4-(4-((1s,4s)-4-hydroxy-4-methylcyclohexyloxy)-5-(4-(methylcarbamoyl)phenyl)-7H-pyrrolo[2,3-d]pyrimidin-2-ylamino)-3-methoxy-N-(oxetan-3-yl)benzamide], for which the IC50 is less than 100 nM.

As to `COc1cc(C(=O)N2CC2)ccc1Nc1nc(OC)c2c(-c3ccncc3)c[nH]c2n1` [Example 338, aziridin-1-yl(3-methoxy-4-(4-methoxy-5-(pyridin-4-yl)-7H-pyrrolo[2,3-d]pyrimidin-2-ylamino)phenyl)methanone], the IC50 fell in the range of 400 to 1000 nM.

`CNC(=O)c1ccc(-c2c[nH]c3nc(Nc4cn(C)nc4C)nc(OC4CCC4)c23)cc1` [Example 340, 4-(4-cyclobutoxy-2-(1,3-dimethyl-1H-pyrazol-4-ylamino)-7H-pyrrolo[2,3-d]pyrimidin-5-yl)-N-methylbenzamide]: the IC50 is less than 100 nM.

As to `CNC(=O)c1ccc(-c2c[nH]c3nc(Nc4ccc(C(=O)NC5COC5)cc4OC)nc(OC4CC(C#N)C4)c23)cc1` (centres unmarked) [Example 341, 4-(4-(3-cyanocyclobutoxy)-5-(4-(methylcarbamoyl)phenyl)-7H-pyrrolo[2,3-d]pyrimidin-2-ylamino)-3-methoxy-N-(oxetan-3-yl)benzamide], the IC50 is less than 100 nM.

For the compound `COc1cc(C(=O)NC2COC2)ccc1Nc1nc(O[C@H]2CCOC2)c2c(-c3ccc4nc(C)oc4c3)c[nH]c2n1` [Example 343, (S)-3-methoxy-4-(5-(2-methylbenzo[d]oxazol-6-yl)-4-(tetrahydrofuran-3-yloxy)-7H-pyrrolo[2,3-d]pyrimidin-2-ylamino)-N-(oxetan-3-yl)benzamide], the IC50 is less than 100 nM.

Regarding `CNC(=O)c1ccc(-c2c[nH]c3nc(Nc4ccc(C(=O)NC5COC5)cc4OC)nc(OC4CC4)c23)cc1` [Example 344, 4-(4-cyclopropoxy-5-(4-(methylcarbamoyl)phenyl)-7H-pyrrolo[2,3-d]pyrimidin-2-ylamino)-3-methoxy-N-(oxetan-3-yl)benzamide], the IC50 is 100 to 400 nM.

As to `CNC(=O)c1ccc(-c2c[nH]c3nc(Nc4ccc(C(=O)NC5COC5)cc4OC)nc(OC4CC(F)(F)C4)c23)cc1` [Example 345, 4-(4-(3,3-difluorocyclobutoxy)-5-(4-(methylcarbamoyl)phenyl)-7H-pyrrolo[2,3-d]pyrimidin-2-ylamino)-3-methoxy-N-(oxetan-3-yl)benzamide], the IC50 is less than 100 nM.

For the compound `COc1cc(C(=O)N2C[C@@H]2CO)ccc1Nc1nc(OC2CCCC2)c2c(-c3ccc4nc(C)oc4c3)c[nH]c2n1` [Example 346, (R)-(4-(4-(cyclopentyloxy)-5-(2-methylbenzo[d]oxazol-6-yl)-7H-pyrrolo[2,3-d]pyrimidin-2-ylamino)-3-methoxyphenyl)(2-(hydroxymethyl)aziridin-1-yl)methanone], the IC50 was 100 to 400 nM.

Take `COc1cc(C(=O)NC2COC2)ccc1Nc1nc(OC)c2c(-c3ccncc3)c[nH]c2n1` [Example 347, 3-methoxy-4-(4-methoxy-5-(pyridin-4-yl)-7H-pyrrolo[2,3-d]pyrimidin-2-ylamino)-N-(oxetan-3-yl)benzamide]: the IC50 lay in the range of 100 to 400 nM.

In the case of `CNC(=O)c1ccc(-c2c[nH]c3nc(Nc4ccc(C(=O)NC5CN(C)C5)cc4OC)nc(OC4CCC4)c23)cc1` [Example 348, 4-(4-cyclobutoxy-5-(4-(methylcarbamoyl)phenyl)-7H-pyrrolo[2,3-d]pyrimidin-2-ylamino)-3-methoxy-N-(1-methylazetidin-3-yl)benzamide], the IC50 was in the range of 100 to 400 nM.

In the case of `CNC(=O)c1ccc(-c2c[nH]c3nc(Nc4ccc(C(=O)NC5CN(C)C5)cc4OC)nc(OC4CCC(C)(O)CC4)c23)cc1` (centres unmarked) [Example 349, 4-(4-((1s,4s)-4-hydroxy-4-methylcyclohexyloxy)-5-(4-(methylcarbamoyl)phenyl)-7H-pyrrolo[2,3-d]pyrimidin-2-ylamino)-3-methoxy-N-(1-methylazetidin-3-yl)benzamide], the IC50 lay in the range of 100 to 400 nM.

As to `COc1cc(C(=O)N2C[C@H]2CO)ccc1Nc1nc(OC2CCCC2)c2c(-c3ccc4nc(C)oc4c3)c[nH]c2n1` [Example 350, (S)-(4-(4-(cyclopentyloxy)-5-(2-methylbenzo[d]oxazol-6-yl)-7H-pyrrolo[2,3-d]pyrimidin-2-ylamino)-3-methoxyphenyl)(2-(hydroxymethyl)aziridin-1-yl)methanone], the IC50 lay in the range of 100 to 400 nM.

Regarding `Cc1nc2ccc(-c3c[nH]c4nc(Nc5cnn(C(C)C)c5Cl)nc(OC5CCCC5)c34)cc2o1` [Example 351, N-(5-chloro-1-isopropyl-1H-pyrazol-4-yl)-4-(cyclopentyloxy)-5-(2-methylbenzo[d]oxazol-6-yl)-7H-pyrrolo[2,3-d]pyrimidin-2-amine], the IC50 is 100 to 400 nM.

Regarding `CNC(=O)c1ccc(-c2c[nH]c3nc(Nc4ccc(C(=O)NC5COC5)cc4OC)nc(OC4CCC4)c23)cn1` [Example 352, 5-(4-cyclobutoxy-2-(2-methoxy-4-(oxetan-3-ylcarbamoyl)phenylamino)-7H-pyrrolo[2,3-d]pyrimidin-5-yl)-N-methylpicolinamide], the IC50 was in the range of 1000 to 10000 nM.

Regarding `CNC(=O)c1ccc(-c2c[nH]c3nc(Nc4ccc(C(=O)NC5COC5)cc4OC)nc(OC4CCC4)c23)cc1F` [Example 353, 4-(4-cyclobutoxy-2-(2-methoxy-4-(oxetan-3-ylcartbamoyl)phenylamino)-7H-pyrrolo[2,3-d]pyrimidin-5-yl)-2-fluoro-N-methylbenzamide], the IC50 was in the range of 1000 to 10000 nM.

For `COc1cc(C(=O)NC2CN(C)C2)ccc1Nc1nc(OC(C)(C)C)c2c(-c3ccc4nc(C)oc4c3)c[nH]c2n1` [Example 354, 4-(4-tert-butoxy-5-(2-methylbenzo[d]oxazol-6-yl)-7H-pyrrolo[2,3-d]pyrimidin-2-ylamino)-3-methoxy-N-(1-methylazetidin-3-yl)benzamide], the IC50 was less than 100 nM.

For the compound `CNC(=O)c1ccc(-c2c[nH]c3nc(Nc4ccc(C(=O)NC5CN(C)C5)cc4OC)nc(OC(C)(C)C)c23)cc1` [Example 355, 4-(4-tert-butoxy-5-(4-(methylcarbamoyl)phenyl)-7H-pyrrolo[2,3-d]pyrimidin-2-ylamino)-3-methoxy-N-(1-methylazetidin-3-yl)benzamide], the IC50 is less than 100 nM.

Take `COc1cc(C(=O)NC2CN(C)C2)ccc1Nc1nc(OC(C)C)c2c(-c3ccc4nc(C)oc4c3)c[nH]c2n1` [Example 356, 4-(4-isopropoxy-5-(2-methylbenzo[d]oxazol-6-yl)-7H-pyrrolo[2,3-d]pyrimidin-2-ylamino)-3-methoxy-N-(1-methylazetidin-3-yl)benzamide]: the IC50 is less than 100 nM.
